These results are taken from US9765070B2, “Substituted oxopyridine derivatives” (Bayer Pharma Aktiengesellschaft, priority 2013, dated 2017).

Each structure is given as a SMILES string.

In the test the target is human plasma kallikrein (Homo sapiens (Human), UniProt P03952). Description: Determination of the plasma kallikrein activity (fluorogenic substrate H-Pro-Phe-Arg-AMC). The format is biochemical. Conditions: plasma kallikrein from Kordia 0.6 nM, 15 min preincubation, 30 min at 22° C., fluorescence. As to the method:
a.5) Determination of the Plasma Kallikrein Activity
To determine the plasma kallikrein inhibition of the substances according to the invention, a biochemical test system is used which utilizes the reaction of a peptidic plasma kallikrein substrate to determine the enzymatic activity of human plasma kallikrein. Here, plasma kallikrein cleaves from the peptic plasma kallikrein substrate the C-terminal aminomethylcoumarin (AMC), the fluorescence of which is measured. The determinations are carried out in microtitre plates.
In each case 1 μl of the diluted substance solutions is placed into the wells of white microtitre plates from Greiner (384 wells). 20 μl of assay buffer (50 mM Tris/HCl pH 7.4; 100 mM sodium chloride solution; 5 mM of calcium chloride solution; 0.1% of bovine serum albumin) and 20 μl of plasma kallikrein from Kordia (0.6 nM in assay buffer) are then added successively. After 15 min of incubation, the enzyme reaction is started by addition of 20 μl of the substrate H-Pro-Phe-Arg-AMC dissolved in assay buffer (10 μM in assay buffer) from Bachem, the mixture is incubated at room temperature (22° C.) for 30 min and fluorescence is then measured (excitation: 360 nm, emission: 460 nm). The measured emissions of the test batches with test substance are compared to those of control batches without test substance (only dimethyl sulphoxide instead of test substance in dimethyl sulphoxide), and IC50 values are calculated from the concentration/activity relationships.

human plasma kallikrein, sequence (P03952 391-638): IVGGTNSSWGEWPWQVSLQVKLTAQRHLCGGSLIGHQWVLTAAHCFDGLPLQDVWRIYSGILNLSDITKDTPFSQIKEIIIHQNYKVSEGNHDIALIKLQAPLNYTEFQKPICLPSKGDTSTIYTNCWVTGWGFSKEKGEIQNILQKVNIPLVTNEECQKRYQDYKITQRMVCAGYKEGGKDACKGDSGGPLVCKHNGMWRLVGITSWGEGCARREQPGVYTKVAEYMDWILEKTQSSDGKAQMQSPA
human plasma kallikrein, sequence (P03952 20-390 partner): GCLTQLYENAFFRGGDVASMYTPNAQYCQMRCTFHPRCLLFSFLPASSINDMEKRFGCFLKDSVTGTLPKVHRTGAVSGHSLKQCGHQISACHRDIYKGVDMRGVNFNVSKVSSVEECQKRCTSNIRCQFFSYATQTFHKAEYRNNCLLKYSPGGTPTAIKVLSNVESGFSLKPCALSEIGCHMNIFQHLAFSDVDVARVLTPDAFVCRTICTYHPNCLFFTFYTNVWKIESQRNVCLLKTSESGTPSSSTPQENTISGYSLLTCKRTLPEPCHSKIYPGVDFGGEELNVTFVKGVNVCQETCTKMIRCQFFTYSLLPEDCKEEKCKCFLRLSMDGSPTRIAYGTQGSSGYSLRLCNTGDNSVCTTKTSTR

For `COc1cn(C(C[C@@H]2CCCCO2)C(=O)Nc2ccc3nc(C(=O)O)cn3c2)c(=O)cc1-c1cc(Cl)ccc1C#N` (mixture of isomers) [Example 9, 6-({2-[4-(5-Chloro-2-cyanophenyl)-5-methoxy-2-oxopyridin-1(2H)-yl]-3-[(2S)-tetrahydro-2H-pyran-2-yl]propanoyl}amino)imidazo[1,2-a]pyridine-2-carboxylic acid (mixture of enantiomerically pure diastereomers)], the IC50 was 4.8 nM.
Under `CCC(C(=O)Nc1ccc2nc(C(=O)O)cn2c1)n1cc(OC)c(-c2cc(Cl)ccc2C#N)cc1=O` (racemic) [Example 2, 6-({2-[4-(5-Chloro-2-cyanophenyl)-5-methoxy-2-oxopyridin-1(2H)-yl]butanoyl}amino)imidazo[1,2-a]pyridine-2-carboxylic acid (racemate)] stands 16 nM; under `CCC(C(=O)Nc1ccn2cc(C(=O)O)nc2c1)n1cc(OC)c(-c2cc(Cl)ccc2C#N)cc1=O` (racemic) [Example 3, 7-({2-[4-(5-Chloro-2-cyanophenyl)-5-methoxy-2-oxopyridin-1(2H)-yl]butanoyl}amino)imidazo[1,2-a]pyridine-2-carboxylic acid (racemate)], 13 nM; under `CCC(C(=O)Nc1ccc2nccn2c1)n1cc(OC)c(-c2cc(Cl)ccc2C#N)cc1=O` (racemic) [Example 4, 2-[4-(5-Chloro-2-cyanophenyl)-5-methoxy-2-oxopyridin-1(2H)-yl]-N-(imidazo[1,2-a]pyridin-6-yl)butanamide (racemate)], 44 nM.
The same measure for `CCOC(=O)c1cnc2ccc(NC(=O)C(CCOC)n3cc(OC)c(-c4cc(Cl)ccc4C#N)cc3=O)cn12` (racemic) [Example 10, Ethyl 6-({2-[4-(5-chloro-2-cyanophenyl)-5-methoxy-2-oxopyridin-1(2H)-yl]-4-methoxybutanoyl}amino)imidazo[1,2-a]pyridine-3-carboxylate (racemate)]: 7 nM.
The same measure for `CCOC(=O)c1cn2ccc(NC(=O)C(CCOC)n3cc(OC)c(-c4cc(Cl)ccc4C#N)cc3=O)cc2n1` (racemic) [Example 11, Ethyl 7-({2-[4-(5-chloro-2-cyanophenyl)-5-methoxy-2-oxopyridin-1(2H)-yl]-4-methoxybutanoyl}amino)imidazo[1,2-a]pyridine-2-carboxylate (racemate)]: 5 nM.
`COCCC(C(=O)Nc1ccn2cc(C(N)=O)nc2c1)n1cc(OC)c(-c2cc(Cl)ccc2C#N)cc1=O` (racemic) [Example 12, 7-({2-[4-(5-Chloro-2-cyanophenyl)-5-methoxy-2-oxopyridin-1(2H)-yl]-4-methoxybutanoyl}amino)imidazo[1,2-a]pyridine-2-carboxamide (racemate)] had a concentration for half-maximal inhibition (IC50) of 4.9 nM.
Under `COCCC(C(=O)Nc1ccc2nccn2c1)n1cc(OC)c(-c2cc(Cl)ccc2C#N)cc1=O` (racemic) [Example 13, 2-[4-(5-Chloro-2-cyanophenyl)-5-methoxy-2-oxopyridin-1(2H)-yl]-N-(imidazo[1,2-a]pyridin-6-yl)-4-methoxybutanamide (racemate)] stands 13 nM.
For the compound `COCCC(C(=O)Nc1ccc2nccn2c1)n1cc(Cl)c(-c2cc(Cl)ccc2C#N)cc1=O` (racemic) [Example 14, 2-[5-Chloro-4-(5-chloro-2-cyanophenyl)-2-oxopyridin-1(2H)-yl]-N-(imidazo[1,2-a]pyridin-6-yl)-4-methoxybutanamide (racemate)], the IC50 was 65 nM. Against the preceding compound, the IC50 is about 5-fold higher.
Under `COc1cn(C(CC2CCC2)C(=O)Nc2ccc3nccn3c2)c(=O)cc1-c1cc(Cl)ccc1C#N` (racemic) [Example 15, 2-[4-(5-Chloro-2-cyanophenyl)-5-methoxy-2-oxopyridin-1(2H)-yl]-3-cyclobutyl-N-(imidazo[1,2-a]pyridin-6-yl)propanamide (racemate)] stands 31 nM; under `CCC(C(=O)Nc1ccc2ncc(Cl)n2c1)n1cc(OC)c(-c2cc(Cl)ccc2C#N)cc1=O` (racemic) [Example 17, 2-[4-(5-Chloro-2-cyanophenyl)-5-methoxy-2-oxopyridin-1(2H)-yl]-N-(3-chloroimidazo[1,2-a]pyridin-6-yl)butanamide (racemate)], 24 nM.
Under `CCC(C(=O)Nc1ccc2nc(-c3ccc(F)cc3)cn2c1)n1cc(OC)c(-c2cc(Cl)ccc2C#N)cc1=O` (racemic) [Example 18, 2-[4-(5-Chloro-2-cyanophenyl)-5-methoxy-2-oxopyridin-1(2H)-yl]-N-[2-(4-fluorophenyl)-imidazo[1,2-a]pyridin-6-yl]butanamide (racemate)] stands 130 nM.
The same measure for `COCCC(C(=O)Nc1ccc2nc(-c3ccc(F)cc3)cn2c1)n1cc(OC)c(-c2cc(Cl)ccc2C#N)cc1=O` (racemic) [Example 19, 2-[4-(5-Chloro-2-cyanophenyl)-5-methoxy-2-oxopyridin-1(2H)-yl]-N-[2-(4-fluorophenyl)-imidazo[1,2-a]pyridin-6-yl]-4-methoxybutanamide (racemate)]: 25 nM; for `CCC(C(=O)Nc1ccc2nncn2c1)n1cc(OC)c(-c2cc(Cl)ccc2C#N)cc1=O` (racemic) [Example 20, 2-[4-(5-Chloro-2-cyanophenyl)-5-methoxy-2-oxopyridin-1(2H)-yl]-N-([1,2,4]triazolo[4,3-a]pyridin-6-yl)butanamide (racemate)]: 23 nM; for `COCCC(C(=O)Nc1ccc2nnc(C)n2c1)n1cc(OC)c(-c2cc(Cl)ccc2C#N)cc1=O` (racemic) [Example 22, 2-[4-(5-Chloro-2-cyanophenyl)-5-methoxy-2-oxopyridin-1(2H)-yl]-4-methoxy-N-(3-methyl[1,2,4]triazolo[4,3-a]pyridin-6-yl)butanamide (racemate)]: 8.3 nM.
`CCc1nnc2ccc(NC(=O)C(CCOC)n3cc(OC)c(-c4cc(Cl)ccc4C#N)cc3=O)cn12` (racemic) [Example 23, 2-[4-(5-Chloro-2-cyanophenyl)-5-methoxy-2-oxopyridin-1(2H)-yl]-4-methoxy-N-(3-ethyl[1,2,4]triazolo[4,3-a]pyridin-6-yl)butanamide (racemate)] showed an IC50 of 13 nM.
Under `CCCCc1nnc2ccc(NC(=O)C(CCOC)n3cc(OC)c(-c4cc(Cl)ccc4C#N)cc3=O)cn12` (racemic) [Example 24, N-(3-Butyl[1,2,4]triazolo[4,3-a]pyridin-6-yl)-2-[4-(5-chloro-2-cyanophenyl)-5-methoxy-2-oxopyridin-1(2H)-yl]-4-methoxybutanamide (racemate)] stands 16 nM; under `COCCC(C(=O)Nc1ccc2nnc(CN(C)C)n2c1)n1cc(OC)c(-c2cc(Cl)ccc2C#N)cc1=O` (racemic) [Example 25, 2-[4-(5-Chloro-2-cyanophenyl)-5-methoxy-2-oxopyridin-1(2H)-yl]-N-{3-[(dimethylamino)-methyl][1,2,4]triazolo[4,3-a]pyridin-6-yl}-4-methoxybutanamide (racemate)], 23 nM.
The same measure for `COCCC(C(=O)Nc1ccc2cncn2c1)n1cc(Cl)c(-c2cc(Cl)ccc2C#N)cc1=O` (racemic) [Example 27, 2-[5-Chloro-4-(5-chloro-2-cyanophenyl)-2-oxopyridin-1(2H)-yl]-N-(imidazo[1,5-a]pyridin-6-yl)-4-methoxybutanamide (racemate)]: 50 nM; for `COc1cn(C(Cc2ccccn2)C(=O)Nc2ccc3nccn3c2)c(=O)cc1-c1cc(Cl)ccc1C#N` (racemic) [Example 28, 2-[4-(5-Chloro-2-cyanophenyl)-5-methoxy-2-oxopyridin-1(2H)-yl]-N-(imidazo[1,2-a]pyridin-6-yl)-3-(pyridin-2-yl)propanamide (racemate)]: 8.8 nM.
Regarding `COc1cn(C(Cc2cnco2)C(=O)Nc2ccc3nccn3c2)c(=O)cc1-c1cc(Cl)ccc1C#N` (racemic) [Example 29, 2-[4-(5-Chloro-2-cyanophenyl)-5-methoxy-2-oxopyridin-1(2H)-yl]-N-(imidazo[1,2-a]pyridin-6-yl)-3-(1,3-oxazol-5-yl)propanamide (racemate)], the 50% inhibitory concentration (IC50) worked out at 11 nM.
The same measure for `CCC(C(=O)Nc1ccn2nccc2c1)n1cc(OC)c(-c2cc(Cl)ccc2C#N)cc1=O` (racemic) [Example 34, 2-[4-(5-Chloro-2-cyanophenyl)-5-methoxy-2-oxopyridin-1(2H)-yl]-N-(pyrazolo[1,5-a]pyridin-5-yl)butanamide (racemate)]: 17 nM; for `COCCC(C(=O)Nc1ccn2nccc2c1)n1cc(OC)c(-c2cc(Cl)ccc2C#N)cc1=O` (racemic) [Example 35, 2-[4-(5-Chloro-2-cyanophenyl)-5-methoxy-2-oxopyridin-1(2H)-yl]-4-methoxy-N-(pyrazolo[1,5-a]pyridin-5-yl)butanamide (racemate)]: 4.3 nM; for `CCC(C(=O)Nc1ccn2ncc(Cl)c2c1)n1cc(OC)c(-c2cc(Cl)ccc2C#N)cc1=O` (racemic) [Example 40, 2-[4-(5-Chloro-2-cyanophenyl)-5-methoxy-2-oxopyridin-1(2H)-yl]-N-(3-chloropyrazolo[1,5-a]pyridin-5-yl)butanamide (racemate)]: 51 nM.
Under `COCCC(C(=O)Nc1ccn2ncc(Cl)c2c1)n1cc(OC)c(-c2cc(Cl)ccc2C#N)cc1=O` (racemic) [Example 41, 2-[4-(5-Chloro-2-cyanophenyl)-5-methoxy-2-oxopyridin-1(2H)-yl]-N-(3-chloropyrazolo[1,5-a]pyridin-5-yl)-4-methoxybutanamide (racemate)] stands 11 nM.

Usually IC50 stands for the concentration at which inhibition is half-maximal. Low values mean greater potency, high ones weaker potency.
